Consider five molecules from patent US10023902B2, “Methods for detecting enzyme activity using fluorescence lifetime imaging” (Purdue Research Foundation, priority 2012, dated 2018).

One data set relates to Syk kinase. Put plainly: FLIM detection of Syk kinase activity with SAStide-TAT biosensor in MCF7 breast cancer cells. Format: cell-based.
The next data set concerns Abl kinase. Put plainly: Biosensor Cy5 fluorescence lifetime analysis in live MEFs (FLIM). Format: cell-based, mouse. As to conditions: control MEFs expressing Abl kinase, 50 nM, 24 h; non-parametric ANOVA, P<0.05. As for the experimental part:
With reference to FIG. 3, WT MEF cells (unless otherwise indicated) were cultured on cover slips and incubated with the biosensor peptide or a control (as indicated, 50 nM for each) for 24 h, then imaged using the FLIM system. Data were extracted from raw FLIM images and represented as lifetime maps of autofluorescence, Cy5 only, Abl-TAT in Abl (−/−) MEFs, Abl-TAT in WT MEFs, Abl-F-mutant, Abl-phospho. With reference to FIG. 3A, fluorophore lifetime per cell was averaged for at least 20 cells in 3-5 replicate experiments and plotted as a distribution of lifetimes observed in each condition. Error bars represent standard error of the mean for each lifetime value. […] Error bars represent SEM.
Cover slips were washed with PBS and imaged immediately.
Average lifetimes per cell for multiple cells were calculated and plotted to show the distribution of lifetimes observed for the biosensor and each control (FIG. 3G). The distributions were determined to be non-Gaussian, so non-parametric ANOVA with a Dunn's post-test was used to evaluate statistical significance (P<0.05) for differences in the mean lifetimes. […] These experiments confirmed that the increase in Cy5 lifetime was specific and due to Abl-dependent phosphorylation of the biosensor peptide on tyrosine. […]

Another data set concerns MEFs. As to conditions: FCS, Cy5 alone vs biosensor. As for the experimental part:
Sequestration of the biosensor in endosomes was tested by staining for an endosomal marker. […] Peptide degradation, a potential issue in some cell types, was also examined.

Residues, ends and D or L forms follow the SMILES beside them. No end group written: not given here. *: point of attachment. X1 = C[N+]1=C(C=CC=CC=C2N(CCCCCC(=O)NCCN3C(=O)CC(*)C3=O)c3ccccc3C2(C)C)C(C)(C)c2ccccc21; Cy5 = Cy5 fluorophore label on the Cys side chain

Turning to `COc1cc(Nc2ncc(F)c(Nc3ccc4c(n3)N(COP(=O)(O)O)C(=O)C(C)(C)O4)n2)cc(OC)c1OC` [fostamatinib, reference compound], the “regions of increased Cy5 lifetime after inhibitor pre-treatment” value with Syk kinase (Syk +/+ cells pre-treated with SAStide-TAT-Cy5 biosensor and inhibitor, 1 hour) was “no regions of increased lifetime were observed”.
“Abl-F-mutant: analog having a phenylalanine substitution for the tyrosine residue of the Abltide-TAT biosensor, SEQ ID NO:3 (EAIYAAP)”: the “mean Cy5 fluorescence lifetime per cell” value with Abl kinase is “significantly lower mean lifetimes than both Abl-TAT in MEFs expressing Abl kinase and Abl-phospho”.
On the same count and under the same terms, the same measure for `CCN1/C(=C/C=C/C=C/C2=[N+](CCCCCC(=O)O)c3ccc(S(=O)(=O)O)cc3C2(C)C)C(C)(C)c2cc(S(=O)(=O)[O-])ccc21` [Cy5, reference compound]: “significantly lower mean lifetimes than both Abl-TAT in MEFs expressing Abl kinase and Abl-phospho”.
For `CC[C@H](C)[C@H](NC(=O)[C@H](C)NC(=O)[C@H](CCC(=O)O)NC(=O)CNC(=O)CN)C(=O)N[C@@H](Cc1ccc(O)cc1)C(=O)N[C@@H](C)C(=O)N[C@@H](C)C(=O)N1CCC[C@H]1C(=O)N[C@@H](CSC1CC(=O)N(CCNC(=O)CCCCCN2C(=CC=CC=CC3=[N+](C)c4ccccc4C3(C)C)C(C)(C)c3ccccc32)C1=O)C(=O)NCC(=O)NCC(=O)N[C@@H](CCCNC(=N)N)C(=O)N[C@@H](CCCCN)C(=O)N[C@@H](CCCCN)C(=O)N[C@@H](CCCNC(=N)N)C(=O)N[C@@H](CCCNC(=N)N)C(=O)N[C@@H](CCC(N)=O)C(=O)N[C@@H](CCCNC(=N)N)C(=O)N[C@@H](CCCNC(=N)N)C(=O)N[C@@H](CCCNC(=N)N)C(=O)N1CCC[C@H]1C(=O)N[C@@H](CCC(N)=O)C(=O)O` (some centres unmarked) [Abl-TAT] (H-GGEAIYAAPC(X1)GGRKKRRQRRRPQ-OH), in the data set with MEFs, the “peptide degradation to free Cy5” value is recorded as “not degraded to free Cy5”.
For “DEEDYEEPDEPGGCCy5GGRKKRRQRRRPQ (DEEDYEEPDEPGGC(Cy5)GGRKKRRQRRRPQ) [SAStide-TAT, Cy5-labeled Syk substrate peptide]”, the “Cy5 lifetime shift of biosensor” value in the data set with Syk kinase (active Syk-expressing cells, pervanadate (Syk activation conditions), co-localizes with decreased EGFP lifetime) is reported as “increased Cy5 lifetime”.
